Results as given in PubChem BioAssay (NCI).
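The compound was tested at five concentrations on cells cultured in 96-well plates, with a 48-hour exposure period. The concentration for 50% growth inhibition is given as GI50. Definition used: TGI = concentration required for complete inhibition of growth.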

Test system: SF-295 CNS
Assay: DTP human tumour cell line panel, 48 h

`Cc1ccc(C(=O)/C=C/c2ccccc2O)c(C)c1` and `COc1ccc(-c2cc3c(nn2)-c2ccccc2C3=O)cc1` cannot be ordered by TGI: > 100 µM for the first, > 100 µM for the second.

Compared with `COc1cc2c(/C=C3/C(=O)Nc4cccc(Cl)c43)c(Cl)n(Cc3ccccc3)c2cc1C`, `Cc1[nH]c(N=Nc2ccccc2)nc1N=Nc1ccccc1` is 1.8-fold lower in TGI: 21.2 µM for the first, 11.6 µM for the second.

`N#Cc1cnsc1` and `CCc1cccc(C)c1NC(C)=O` cannot be ordered by TGI: > 100 µM for the first, > 100 µM for the second.

Going from `O=C1C2=C(CC3C(C2)C3(Br)Br)C(=O)C2=C1CC1C(C2)C1(Br)Br` (stereo unspecified) to `COc1ccc(C2CC(=O)c3c(O)c(OC)c(OC)c(OC)c3O2)c(O)c1` (stereo unspecified), the TGI falls from > 100 µM to 14.6 µM.

In the case of `CC(=O)c1ccc(NC(=O)/C(Cc2ccccn2)=N/NC(=O)C[N+](C)(C)C)cc1`, the TGI is reported as > 100 µM.

Compared with `COc1cc2c(/C=C3/C(=O)Nc4cccc(Cl)c43)c(Cl)n(Cc3ccccc3)c2cc1C`, `COc1ccc(-c2cc3c(nn2)-c2ccccc2C3=O)cc1` is higher in GI50: 2.11 µM for the first, > 100 µM for the second.

Compared with `Cc1[nH]c(N=Nc2ccccc2)nc1N=Nc1ccccc1`, `COc1ccc(C2CC(=O)c3c(O)c(OC)c(OC)c(OC)c3O2)c(O)c1` (stereo unspecified) is 5.5-fold lower in GI50: 1.93 µM for the first, 0.349 µM for the second.

Test system: HT29 colon
Assay: DTP human tumour cell line panel, 48 h

Going from `COc1ccc(/C(=N/Nc2ccc([N+](=O)[O-])cc2)Sc2cc(Cl)c(C)cc2S(N)(=O)=O)cc1` to `COc1ccc(-c2cc3c(nn2)-c2ccccc2C3=O)cc1`, the GI50 rises from 2.91 µM to > 100 µM.

Going from `NC(N)=NC(N)=Nc1cc2ccccc2c2ccccc12` to `Cc1[nH]c(N=Nc2ccccc2)nc1N=Nc1ccccc1`, the GI50 falls from 7.83 µM to 4.57 µM (1.7-fold).

First: CC12CCCC(CC(=O)c3[nH]c4ccccc4c31)C2 (stereo unspecified)
Second: Cc1cc(C2CCCCC2)n(O)c(=O)c1
The GI50 of the first is 14-fold lower: 0.377 µM for the first, 5.27 µM for the second.

Compared with `CN1C(NC(=O)c2ccc(Cl)nc2)=NS(=O)(=O)c2cc(Cl)ccc21`, `COc1cc2c(/C=C3/C(=O)Nc4cccc(Cl)c43)c(Cl)n(Cc3ccccc3)c2cc1C` is lower in GI50: > 100 µM for the first, 4.99 µM for the second.

`CC(=O)[O][Hg][c]1c(C)c(C)c(C)c(C)c1C` and `COc1ccc(C2CC(=O)c3c(O)c(OC)c(OC)c(OC)c3O2)c(O)c1` (stereo unspecified) are within 1.5-fold of each other in GI50: 2.02 µM for the first, 2.64 µM for the second.

Compared with `COc1ccc(/C(=N/Nc2ccc([N+](=O)[O-])cc2)Sc2cc(Cl)c(C)cc2S(N)(=O)=O)cc1`, `COc1ccc(-c2cc3c(nn2)-c2ccccc2C3=O)cc1` is higher in TGI: 6.89 µM for the first, > 100 µM for the second.

`NC(N)=NC(N)=Nc1cc2ccccc2c2ccccc12` and `Cc1[nH]c(N=Nc2ccccc2)nc1N=Nc1ccccc1` are within 1.5-fold of each other in TGI: 23.6 µM for the first, 20.8 µM for the second.

`CC12CCCC(CC(=O)c3[nH]c4ccccc4c31)C2` (stereo unspecified) and `Cc1ccc(C(=O)/C=C/c2ccccc2O)c(C)c1` are within 1.5-fold of each other in TGI: 6.27 µM for the first, 8.42 µM for the second.

`CN1C(NC(=O)c2ccc(Cl)nc2)=NS(=O)(=O)c2cc(Cl)ccc21` and `COC(=O)C(=O)C(C(=O)C=C(C)C)C(=O)C(=O)Nc1ccc(Cl)cc1C` (stereo unspecified) cannot be ordered by TGI: > 100 µM for the first, > 100 µM for the second.

`Cc1cc(C2CCCCC2)n(O)c(=O)c1` and `CCc1cccc(C)c1NC(C)=O` cannot be ordered by TGI: > 100 µM for the first, > 100 µM for the second.

First: CC(=O)[O][Hg][c]1c(C)c(C)c(C)c(C)c1C
Second: COc1ccc(C2CC(=O)c3c(O)c(OC)c(OC)c(OC)c3O2)c(O)c1 (stereo unspecified)
The TGI of the first is lower: 4.77 µM for the first, > 100 µM for the second.

First: CN(C)C(=S)SN(C)C(=O)Nc1ccccc1
Second: CC(=O)c1ccc(NC(=O)/C(Cc2ccccn2)=N/NC(=O)C[N+](C)(C)C)cc1
The TGI of the first is lower: 24.4 µM for the first, > 100 µM for the second.

`COc1cc2c(/C=C3/C(=O)Nc4cccc(Cl)c43)c(Cl)n(Cc3ccccc3)c2cc1C` and `O=C1C2=C(CC3C(C2)C3(Br)Br)C(=O)C2=C1CC1C(C2)C1(Br)Br` (stereo unspecified) cannot be ordered by TGI: > 100 µM for the first, > 100 µM for the second.

In the case of `N#Cc1cnsc1`, the TGI is reported as > 100 µM.

Test system: M14 melanoma
Assay: DTP human tumour cell line panel, 48 h

First: COc1ccc(/C(=N/Nc2ccc([N+](=O)[O-])cc2)Sc2cc(Cl)c(C)cc2S(N)(=O)=O)cc1
Second: COc1ccc(-c2cc3c(nn2)-c2ccccc2C3=O)cc1
The GI50 of the first is lower: 5.75 µM for the first, > 100 µM for the second.

Going from `NC(N)=NC(N)=Nc1cc2ccccc2c2ccccc12` to `Cc1[nH]c(N=Nc2ccccc2)nc1N=Nc1ccccc1`, the GI50 falls from 10.6 µM to 2 µM (5.3-fold).

Going from `CC12CCCC(CC(=O)c3[nH]c4ccccc4c31)C2` (stereo unspecified) to `Cc1cc(C2CCCCC2)n(O)c(=O)c1`, the GI50 rises from 0.399 µM to 1.39 µM (3.5-fold).

First: CN1C(NC(=O)c2ccc(Cl)nc2)=NS(=O)(=O)c2cc(Cl)ccc21
Second: COc1cc2c(/C=C3/C(=O)Nc4cccc(Cl)c43)c(Cl)n(Cc3ccccc3)c2cc1C
The GI50 of the first is higher: > 100 µM for the first, 4.79 µM for the second.

Compared with `CC(=O)[O][Hg][c]1c(C)c(C)c(C)c(C)c1C`, `COc1ccc(C2CC(=O)c3c(O)c(OC)c(OC)c(OC)c3O2)c(O)c1` (stereo unspecified) is 16-fold lower in GI50: 1.35 µM for the first, 0.0834 µM for the second.

Going from `COc1ccc(/C(=N/Nc2ccc([N+](=O)[O-])cc2)Sc2cc(Cl)c(C)cc2S(N)(=O)=O)cc1` to `COc1ccc(-c2cc3c(nn2)-c2ccccc2C3=O)cc1`, the TGI rises from 15.3 µM to > 100 µM.

First: NC(N)=NC(N)=Nc1cc2ccccc2c2ccccc12
Second: Cc1[nH]c(N=Nc2ccccc2)nc1N=Nc1ccccc1
The TGI of the first is 5.5-fold higher: 24.7 µM for the first, 4.49 µM for the second.

Going from `CC12CCCC(CC(=O)c3[nH]c4ccccc4c31)C2` (stereo unspecified) to `Cc1ccc(C(=O)/C=C/c2ccccc2O)c(C)c1`, the TGI rises from 17.3 µM to > 100 µM.

`CN1C(NC(=O)c2ccc(Cl)nc2)=NS(=O)(=O)c2cc(Cl)ccc21` and `COC(=O)C(=O)C(C(=O)C=C(C)C)C(=O)C(=O)Nc1ccc(Cl)cc1C` (stereo unspecified) cannot be ordered by TGI: > 100 µM for the first, > 100 µM for the second.

Compared with `CC(=O)[O][Hg][c]1c(C)c(C)c(C)c(C)c1C`, `CCc1cccc(C)c1NC(C)=O` is higher in TGI: 2.65 µM for the first, > 100 µM for the second.

Compared with `CN(C)C(=S)SN(C)C(=O)Nc1ccccc1`, `CC(=O)c1ccc(NC(=O)/C(Cc2ccccn2)=N/NC(=O)C[N+](C)(C)C)cc1` is higher in TGI: 47.9 µM for the first, > 100 µM for the second.

First: COc1cc2c(/C=C3/C(=O)Nc4cccc(Cl)c43)c(Cl)n(Cc3ccccc3)c2cc1C
Second: COc1ccc(C2CC(=O)c3c(O)c(OC)c(OC)c(OC)c3O2)c(O)c1 (stereo unspecified)
The TGI of the first is higher: > 40.5 µM for the first, 15.4 µM for the second.

`N#Cc1cnsc1` and `O=C1C2=C(CC3C(C2)C3(Br)Br)C(=O)C2=C1CC1C(C2)C1(Br)Br` (stereo unspecified) cannot be ordered by TGI: > 100 µM for the first, > 100 µM for the second.
